Key:
[1] = target: RNAC (U bulge mutated to an AU pair); experiment: Fluorescence-based binding affinity measurement
Method: FIG. 7: Secondary structures of the nucleic acids to which the binding of small molecule 4 was assessed. […] RNA1 contains the U bulge present in the Dicer processing site common to miR-17, -18a and -20a. RNA2 contains the A bulge that is present in miR-18a. RNA3 contains the G bulge present in miR-17 and miR-20a. Binding affinities (Kd's) are indicated in parentheses and are reported in micromolar.
(§1) Mutation of the U bulge to an AU pair (RNAC) eliminates binding (Kd>100 μM).
Binding Affinity Measurements: An in solution, fluorescence-based assay was used to determine binding affinities by monitoring the change in fluorescence intensity of 1-FL (or 2-FL/3-FL/4-FL) as a function of RNA concentration as described previously.^18 Briefly, the RNA of interest was folded in 1× Folding Buffer (8 mM Na2HPO4, pH 7.0, 185 mM NaCl and 1 mM EDTA) by heating at 60° C. for 5 min followed by slowly cooling to room temperature on the bench top. Then, the FL-conjugated compound was added into the RNA solution to a final concentration of 100 nM. Serial dilutions were then completed using 1× Folding Buffer supplemented with 100 nM FL-conjugated compound. The solutions were incubated at room temperature for 30 min and then transferred to a well of a black 384-well plate. […]

[2] = target: AT-rich DNA hairpin; experiment: In solution fluorescence-based binding affinity measurement
Text: It has been difficult to identify compounds that are heterocyclic in nature that selectively recognize RNA over DNA.^5 Thus, to further gain insight into the selectivity of our RNA motif-small molecule interactions, we compared the measured affinities for selected RNA motifs to the affinities of the ligands for an AT-rich DNA hairpin, a common target of small molecules similar to those shown in FIG. 1. […] This alteration reduces DNA affinity because key stacking and hydrogen bonding interactions are not possible. […] Thus, the interactions selected via 2DCS are RNA-selective.
(§2) Binding Affinity Measurements: An in solution, fluorescence-based assay was used to determine binding affinities by monitoring the change in fluorescence intensity of 1-FL (or 2-FL/3-FL/4-FL) as a function of RNA concentration as described previously.^18 Briefly, the RNA of interest was folded in 1× Folding Buffer (8 mM Na2HPO4, pH 7.0, 185 mM NaCl and 1 mM EDTA) by heating at 60° C. for 5 min followed by slowly cooling to room temperature on the bench top. Then, the FL-conjugated compound was added into the RNA solution to a final concentration of 100 nM. Serial dilutions were then completed using 1× Folding Buffer supplemented with 100 nM FL-conjugated compound. The solutions were incubated at room temperature for 30 min and then transferred to a well of a black 384-well plate. Fluorescence intensity was measured using a Bio-Tek FL×800 plate reader with an excitation wavelength of 485/20 nm and an emission wavelength of 528/20 nm. The change in fluorescence intensity as a function of the concentration of RNA was fit to equation 3:^9 I=I0+0.5 Δε{([FL]0+[RNA]0 +Kd)−(([FL]0+[RNA]0+Kd)^2−4[FL]0[RNA]0)^1/2} (3) where I is the observed fluorescence intensity; I0 is the fluorescence intensity in the absence of RNA; Δε is the difference between the fluorescence intensity in the absence of RNA and in the presence of infinite RNA concentration; [FL]0 is the concentration of compound; [RNA]0 is the concentration of the selected RNA; and Kd is the dissociation constant.

[3] = test system: motif in the Dicer site of miR-92a; experiment: Fluorescence-based binding affinity measurement; set-up: species or system human; conditions: miR-92a Dicer site motif
Method: as §1, §2

[4] = test system: motif in the Dicer site of miR-19b; experiment: Fluorescence-based binding affinity measurement; set-up: species or system human; conditions: miR-19b Dicer site motif
Method: as §1, §2

[5] = test system: motif in the Dicer site of miR-19a; experiment: Fluorescence-based binding affinity measurement; set-up: species or system human; conditions: miR-19a Dicer site motif
Method: as §1, §2

[6] = target: selected RNA motifs; experiment: In solution fluorescence-based binding affinity measurement; conditions: read-out: Average Kd of Selected RNA Binders
Method: Bound RNA motifs for each compound were harvested from the array surface, amplified, and identified by using high throughput sequencing (RNA-seq). Highly abundant RNAs in the sequencing data were then subjected to binding measurements. Typically, those RNAs that were highly enriched bound to the small molecules with affinities (Kds) that ranged from 1 to 10 μM (FIG. 2 and Table 1) while binding to the starting libraries was not saturable. These affinities are promising for binding RNA, as it has been difficult to acquire low micromolar affinity with compounds of this low molecular weight. In fact, RNAs that have undergone Darwinian evolution to bind small molecules, namely riboswitches, often bind their cognate ligand at […] concentrations;^30-33 bioactive compounds that mimic riboswitch ligands bind with similar affinities.^30,34
as §2

Kd [1]: > 100 µM
Kd [2]: > 100 µM
Saturable binding [3]: No saturable binding
Saturable binding [4]: No saturable binding
Saturable binding [5]: No saturable binding
Kd [6]: 11 ± 2 µM
SMILES: CN1CCN(c2ccc(-c3ccc4nc(-c5cc(C(C)(C)C)c(OCCCC(=O)NCCCN=[N+]=[N-])c(C(C)(C)C)c5)[nH]c4c3)cc2)CC1 [Compound 4]
